# Test system: Staphylococcus aureus
# Experiment: Antibacterial against Staphylococcus aureus
# Type: functional
# Conditions: for MIC: Staphylococcus aureus
Compound,-logMIC,MIC [µg/mL]
Oc1ccc(-c2nc(-c3ccc(Oc4ccc(C(F)(F)F)cc4)cc3)no2)cc1,5.987,
Nc1ccc(-c2nc(-c3ccc(Oc4ccccc4)cc3)no2)cc1,4.411,
Nc1ccc(-c2nc(-c3ccc(Oc4ccc(C(F)(F)F)cc4)cc3)no2)cc1,5.985,
FC(F)(F)c1ccc(Oc2ccc(-c3noc(-c4n[nH]cc4Cl)n3)cc2)cc1,6.008,
Brc1c[nH]nc1-c1nc(-c2ccc(Oc3ccccc3)cc2)no1,5.949,
FC(F)(F)c1ccc(Oc2ccc(-c3noc(-c4n[nH]cc4Br)n3)cc2)cc1,6.11,
Ic1c[nH]nc1-c1nc(-c2ccc(Oc3ccccc3)cc2)no1,6.064,
FC(F)(F)c1ccc(Oc2ccc(-c3noc(-c4n[nH]cc4I)n3)cc2)cc1,5.518,
O=[N+]([O-])c1c[nH]nc1-c1nc(-c2ccc(Oc3ccccc3)cc2)no1,5.163,
O=[N+]([O-])c1c[nH]nc1-c1nc(-c2ccc(Oc3ccc(C(F)(F)F)cc3)cc2)no1,5.341,
O=[N+]([O-])c1c[nH]nc1-c1nc(-c2ccc(Oc3ccc(F)cc3)cc2)no1,5.906,
Oc1ccc(-c2nc(-c3ccc(Oc4ccccc4)cc3)no2)cc1F,4.467,
Oc1ccc(-c2nc(-c3ccc(Oc4ccc(C(F)(F)F)cc4)cc3)no2)cc1F,5.338,
Oc1ccc(-c2nc(-c3ccc(Oc4ccc(F)cc4)cc3)no2)cc1F,5.21,
Oc1c(F)cc(-c2nc(-c3ccc(Oc4ccc(F)cc4)cc3)no2)cc1F,3.872,
Nc1ccc(-c2nc(-c3ccc(Oc4ccc(C(F)(F)F)cc4)cc3)no2)cc1F,5.336,
Nc1c(F)cc(-c2nc(-c3ccc(Oc4ccccc4)cc3)no2)cc1F,3.821,
Nc1c(F)cc(-c2nc(-c3ccc(Oc4ccc(C(F)(F)F)cc4)cc3)no2)cc1F,5.378,2
O=[N+]([O-])c1cc(-c2nc(-c3ccc(Oc4ccc(C(F)(F)F)cc4)cc3)no2)cnc1O,4.017,
O=[N+]([O-])c1cc(-c2nc(-c3ccc(Oc4ccc(F)cc4)cc3)no2)cnc1O,3.898,
O=[N+]([O-])c1ccc(-c2nc(-c3ccc(Oc4ccccc4)cc3)no2)cc1,1.032,128
O=P(O)(O)c1ccc(-c2nc(-c3ccc(Oc4ccc(F)cc4)cc3)no2)cc1,1.17,128
CS(=O)(=O)Nc1ccc(-c2nc(-c3ccc(Oc4ccc(C(F)(F)F)cc4)cc3)no2)cc1,1.312,128
O=C(O)c1ccc(-c2nc(-c3ccc(Oc4ccc(F)cc4)cc3)no2)cc1,1.079,128
COC(=O)c1ccc(-c2nc(-c3ccc(Oc4ccc(F)cc4)cc3)no2)cc1,1.115,128
FC(F)(F)c1ccc(Oc2ccc(-c3noc(-c4cc[nH]n4)n3)cc2)cc1,0.923,128

Compound,-logMIC,MIC [µg/mL]
Nc1c[nH]nc1-c1nc(-c2ccc(Oc3ccc(F)cc3)cc2)no1,3.048,
CCCCNc1c[nH]nc1-c1nc(-c2ccc(Oc3ccc(C(F)(F)F)cc3)cc2)no1,1.243,128
FC(F)(F)c1ccc(Oc2ccc(-c3noc(-c4n[nH]cc4NC4CCCCC4)n3)cc2)cc1,1.3,128
O=C(Nc1c[nH]nc1-c1nc(-c2ccc(Oc3ccc(C(F)(F)F)cc3)cc2)no1)c1ccccc1,1.345,128
O=C(Nc1c[nH]nc1-c1nc(-c2ccc(Oc3ccc(C(F)(F)F)cc3)cc2)no1)c1ccccn1,1.347,128
Nc1cc(-c2nc(-c3ccc(Oc4ccc(F)cc4)cc3)no2)cnc1O,1.046,128
O=C(c1cccc(Oc2ccc(-c3noc(-c4ccc(O)cc4)n3)cc2)c1)C(F)(F)F,4.669,4
O=[N+]([O-])c1c(F)cc(-c2nc(-c3ccc(Oc4ccccc4)cc3)no2)cc1F,1.128,128
Clc1c[nH]nc1-c1nc(-c2ccc(Oc3ccc(I)cc3)cc2)no1,6.141,1
Oc1ccc(-c2nc(-c3ccc(Oc4ccc(Br)cc4)cc3)no2)cc1,5.321,2
Fc1ccc(Oc2ccc(-c3noc(-c4n[nH]cc4Cl)n3)cc2)cc1F,6.619,0.5
O=[N+]([O-])c1c[nH]nc1-c1nc(-c2ccc(Oc3ccc(I)cc3)cc2)no1,4.084,8
Oc1ccc(-c2nc(-c3ccc(Oc4cccc(CBr)c4)cc3)no2)cc1,4.662,4
Nc1c[nH]nc1-c1nc(-c2ccc(Oc3ccc(F)c(F)c3)cc2)no1,3.794,8
O=[N+]([O-])c1ccc(-c2nc(-c3ccc(Oc4ccccc4)cc3)no2)cc1F,1.081,128
O=[N+]([O-])c1c(F)cc(-c2nc(-c3ccc(Oc4ccc(C(F)(F)F)cc4)cc3)no2)cc1F,1.286,128
Oc1ccc(-c2nc(-c3ccc(F)cc3)no2)cc1,0.694,128
Oc1ccc(-c2nc(-c3ccc(Oc4ccc(CBr)cc4)cc3)no2)cc1,1.196,128
Oc1ccc(-c2noc(-c3ccc(O)cc3)n2)cc1,0.686,128
COc1ccc(Oc2ccc(-c3noc(-c4ccc(O)cc4)n3)cc2)cc1,5.194,2
CC(=O)N(C(C)=O)c1c[nH]nc1-c1nc(-c2ccc(Oc3ccc(C(F)(F)F)cc3)cc2)no1,1.304,128
CCC(C)Nc1c[nH]nc1-c1nc(-c2ccc(Oc3ccc(C(F)(F)F)cc3)cc2)no1 (centres undefined),1.243,128
Oc1ccc(-c2nc(-c3ccc(Oc4cccc(Br)c4)cc3)no2)cc1,4.628,4
Fc1ccc(Oc2ccc(-c3noc(-c4n[nH]cc4Cl)n3)cc2)cc1Cl,5.276,2
Fc1ccc(Oc2ccc(-c3noc(-c4n[nH]cc4Br)n3)cc2)cc1F,6.038,1
O=C(O)c1ccc(Oc2ccc(-c3noc(-c4ccc(O)cc4)n3)cc2)cc1,1.766,64

# Source: ChEMBL document CHEMBL3751781, “Three-dimensional QSAR analysis and design of new 1,2,4-oxadiazole antibacterials” (2016)
